Like-named read-outs stand apart in the source and are kept apart here.
What was measured:
Type in all cases: cell-based, Madurella mycetomatis
[1] = system: M. mycetomatis MM55; experiment: IC50 determination, 2-fold dilution series; conditions: Madurella mycetomatis
[2] = system: M. mycetomatis genome strain MM55; experiment: CLSI M38-A2 based in vitro susceptibility screening (XTT or resazurin), growth at fixed concentration; conditions: Madurella mycetomatis
[3] = system: M. mycetomatis; experiment: Drug static or cidal
Source text: Supplement pntd.0010159.s001.xlsx, sheet "Pandemic Box Master sheet" | column: Drug static or cidal

[4] = MM55, mean of replicates, read-out: IC50 mean
[5] = MM55, replicate 1, read-out: IC50 1
[6] = MM55, replicate 1, read-out: IC90 1
[7] = MM55, replicate 2, read-out: IC50 2
[8] = MM55, replicate 2, read-out: IC90 2
[9] = MM55, replicate 3, read-out: IC50 3
[10] = MM55, replicate 3, read-out: IC90 3
[11] = mean of replicates, read-out: Percentage survival at 25um, 25 uM mean
[12] = replicate A, read-out: Percentage survival at 25um, 25 um A
[13] = replicate B, read-out: Percentage survival at 25um, 25 uM B
[14] = replicate C, read-out: Percentage survival at 25um, 25 uM C
[15] = mean of replicates, read-out: Percentage survival at 100um, 100 uM mean
[16] = replicate 1, read-out: Percentage survival at 100um, 100 uM A
[17] = replicate 2, read-out: Percentage survival at 100um, 100 uM A
[18] = replicate 3, read-out: Percentage survival at 100um, 100 uM A
[19] = MM55, replicate 1, read-out: IC50 1 um
[20] = MM55, replicate 1, read-out: IC90 1 um
[21] = MM55, replicate 2, read-out: IC50 2 um
[22] = MM55, replicate 2, read-out: IC90 2 um
[23] = MM55, replicate 3, read-out: IC50 3 um
[24] = MM55, replicate 3, read-out: IC90 3 um
[25] = mean of three replicates, read-out: Percentage survival at 25um, 25 uM mean
[26] = first replicate column, read-out: Percentage survival at 100um, 100 uM A
[27] = mean of three replicates, read-out: Percentage survival at 100um, 100 uM mean
[28] = second replicate column, read-out: Percentage survival at 100um, 100 uM A
[29] = third replicate column, read-out: Percentage survival at 100um, 100 uM A
[30] = MM55, mean of replicates, read-out: IC90 mean

Structure (SMILES) | IC50 [1, 4] [µM] | IC50 [1, 5] [µM] | IC90 [1, 6] [µM] | IC50 [1, 7] [µM] | IC90 [1, 8] [µM] | IC50 [1, 9] [µM] | IC90 [1, 10] [µM] | IC50 [1, 19] [µM] | IC90 [1, 20] [µM] | IC50 [1, 21] [µM] | IC90 [1, 30] [µM] | activity at 25 µM [2, 11] [%] | activity at 25 µM [2, 12] [%] | activity at 25 µM [2, 13] [%] | activity at 25 µM [2, 14] [%] | activity at 100 µM [2, 15] [%] | activity at 100 µM [2, 16] [%] | activity at 100 µM [2, 17] [%] | activity at 100 µM [2, 18] [%] | Drug static or cidal [3] | further results
O=C(Nc1nnc(-c2ccc(Cl)cc2)o1)c1ccc(F)cc1 [MMV1782140] | 13.4 | 15.2 | 23.2 | 11.5 | 21.7 | 13.5 | > 25 | – | – | – | – | 8.95 | 5.38 | 8.31 | 13.2 | 2.78 | -0.102 | 3.75 | 4.7 | Cidal | –
CN1CCN(Cc2ccc(-c3cnc4[nH]cc(-c5ccc6[nH]ccc6c5)c4c3)cc2)CC1 [MMV1580482] | 15.8 | – | – | – | – | – | – | 17.4 | > 25 | 15.3 | – | – | 0.0624 | 1.21 | 7.33 | – | – | – | – | Static | IC90 [1, 22]: 22.8 µM; IC50 [1, 23]: 14.6 µM; IC90 [1, 24]: 22.2 µM; activity at 25 µM [2, 25]: 2.87%; activity at 100 µM [2, 26]: 27.2%; activity at 100 µM [2, 27]: 16.3%; activity at 100 µM [2, 28]: 11.5%; activity at 100 µM [2, 29]: 10.2%
Oc1cccc(C(Nc2nccs2)c2ccc3cccnc3c2O)c1 (stereo not shown) [MMV642550] | > 25 | – | – | – | – | – | – | > 25 | > 25 | > 25 | > 25 | – | -5.33 | 6.92 | 2.03 | – | – | – | – | Cidal | IC90 [1, 22]: > 25 µM; IC50 [1, 23]: > 25 µM; IC90 [1, 24]: > 25 µM; activity at 25 µM [2, 25]: 1.21%; activity at 100 µM [2, 26]: 4.63%; activity at 100 µM [2, 27]: 8.03%; activity at 100 µM [2, 28]: 8.66%; activity at 100 µM [2, 29]: 10.8%
Clc1ccc(Cn2c(CN3CCCC3)nc3ccccc32)cc1 [MMV002015] | > 25 | – | – | – | – | – | – | > 25 | > 25 | > 25 | > 25 | – | 9.47 | -1.23 | 11.8 | – | – | – | – | Cidal | IC90 [1, 22]: > 25 µM; IC50 [1, 23]: > 25 µM; IC90 [1, 24]: > 25 µM; activity at 25 µM [2, 25]: 6.67%; activity at 100 µM [2, 26]: 3.95%; activity at 100 µM [2, 27]: 4.96%; activity at 100 µM [2, 28]: 6.49%; activity at 100 µM [2, 29]: 4.45%

Second part, led by results:

IC50 [1, 4] [µM] | IC50 [1, 5] [µM] | IC90 [1, 6] [µM] | IC50 [1, 7] [µM] | IC90 [1, 8] [µM] | IC50 [1, 9] [µM] | IC90 [1, 10] [µM] | IC50 [1, 19] [µM] | IC90 [1, 20] [µM] | IC50 [1, 21] [µM] | IC90 [1, 30] [µM] | Structure (SMILES) | activity at 25 µM [2, 11] [%] | activity at 25 µM [2, 12] [%] | activity at 25 µM [2, 13] [%] | activity at 25 µM [2, 14] [%] | activity at 100 µM [2, 15] [%] | activity at 100 µM [2, 16] [%] | activity at 100 µM [2, 17] [%] | activity at 100 µM [2, 18] [%] | Drug static or cidal [3] | further results
> 25 | > 25 | > 25 | > 25 | > 25 | > 25 | > 25 | – | – | – | > 25 | Cc1ccc(NC(=O)c2cc(Cl)ccc2O)cc1 [MMV1578897] | 4.86 | 3.43 | 0.378 | 10.8 | 2.02 | 2.19 | 0.189 | 3.69 | Static | –
> 25 | 18.5 | > 25 | > 25 | > 25 | > 25 | > 25 | – | – | – | > 25 | Cc1ccc(S(=O)(=O)Nc2cccc3cccnc23)cc1 [MMV233495] | 17.1 | 5.12 | -0.547 | 46.8 | 31.3 | -0.389 | 38.9 | 55.5 | Static | –

From publication PMC8815882, “Screening the pandemic response box identified benzimidazole carbamates, Olorofim and ravuconazole as promising drug candidates for the treatment of eumycetoma” (PLoS Neglected Tropical Diseases, 2022)
